Results taken from patent publication US20070281960A1, “Anti-Histaminic Composition” (priority 2004, published 2007).

How the values were obtained:
[1] = tested on: human mast cells; settings: in vitro; cited from earlier work
[2] = Compatibility of desloratadine with common excipients; assay type: physicochemical; settings: lactose, magnesium stearate, microcrystalline stearate; degrades and changes to a pink colour
Text: Therefore, extreme caution needs to be taken when formulating desloratadine with various excipients. […] This decomposition is further accelerated under high temperature and humid conditions.

## Clc1ccc2c(c1)CCc1cccnc1C2=C1CCNCC1 [Desloratadine, 8-chloro-6,11-dihydro-11-(4-piperidylidene)-5-H-benzo [5,6] cyclohepta [1,2-b] pyridine]
[1]
  histamine release from human mast cells: inhibits histamine release
[2]
  compatibility with common excipients: incompatible
